Reference: patent US10881637B2 (priority 2015, dated 2021)
Where two headings read alike, the source gives them in different places.

Assays:
[1] = system: subject with bipolar disorder; assay: Salvia divinorum by combustion and inhalation in one subject with bipolar disorder (Example 1); format: in vivo, human; details: for mania on traditional antidepressants: same subject, very small, sub-therapeutic doses
Source text: This method was repeated approximately 20 times with consistent results.

[2] = cited from earlier work
5HTP2A receptors = 5HTP2A receptors (Homo sapiens, UniProt P28223); details: cited from earlier work
Sequence of 5HTP2A receptors (P28223 whole entry): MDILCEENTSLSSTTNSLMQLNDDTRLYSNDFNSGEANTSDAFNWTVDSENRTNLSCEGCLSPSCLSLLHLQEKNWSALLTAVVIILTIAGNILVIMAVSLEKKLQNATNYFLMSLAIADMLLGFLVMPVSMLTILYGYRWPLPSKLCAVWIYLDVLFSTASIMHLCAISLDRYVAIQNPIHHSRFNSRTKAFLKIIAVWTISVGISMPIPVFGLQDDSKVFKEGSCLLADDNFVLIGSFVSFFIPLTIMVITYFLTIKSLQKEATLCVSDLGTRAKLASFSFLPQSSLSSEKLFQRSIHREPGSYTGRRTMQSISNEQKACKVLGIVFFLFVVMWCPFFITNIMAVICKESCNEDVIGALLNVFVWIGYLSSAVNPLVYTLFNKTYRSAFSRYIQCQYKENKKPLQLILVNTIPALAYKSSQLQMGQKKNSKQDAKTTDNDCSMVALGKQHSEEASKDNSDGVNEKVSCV

D2 receptor = D2 receptor (Homo sapiens, UniProt P14416); details: cited from earlier work
Sequence of D2 receptor (P14416 whole entry): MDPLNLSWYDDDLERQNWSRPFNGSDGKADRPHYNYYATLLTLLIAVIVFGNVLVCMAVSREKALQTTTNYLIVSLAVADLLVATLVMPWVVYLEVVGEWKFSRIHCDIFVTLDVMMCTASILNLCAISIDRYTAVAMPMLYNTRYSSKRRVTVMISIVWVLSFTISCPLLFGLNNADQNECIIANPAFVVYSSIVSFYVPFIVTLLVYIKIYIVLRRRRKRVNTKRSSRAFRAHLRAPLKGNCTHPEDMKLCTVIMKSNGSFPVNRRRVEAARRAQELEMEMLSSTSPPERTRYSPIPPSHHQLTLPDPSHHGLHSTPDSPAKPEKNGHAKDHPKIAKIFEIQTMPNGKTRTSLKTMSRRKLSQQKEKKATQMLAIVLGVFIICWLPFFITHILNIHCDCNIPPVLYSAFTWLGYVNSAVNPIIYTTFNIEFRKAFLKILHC

[3] = system: 50 other receptors, transporters and ion channels including mu- and delta-opioid receptors; details: cited from earlier work

CN(C)CCCC1(c2ccc(F)cc2)OCc2cc(C#N)ccc21 (centres unmarked) [celexa]
mania on traditional antidepressants [1]: experienced mania

COC(=O)[C@@H]1C[C@H](OC(C)=O)C(=O)[C@H]2[C@@]1(C)CC[C@H]1C(=O)O[C@H](c3ccoc3)C[C@]21C [salvinorin A]
activity when administered orally ([2]; encapsulated, oral): inactive | absorption on sublingual administration ([2]; sublingual): inconsistent results or no absorption at all | effect on 5HTP2A receptors (5HTP2A receptors): no significant effect | effect on 5HTP2A receptors (5HTP2A receptors; listed as Salvinorin A): no substantial effect | D2 receptor activity (D2 receptor): partial agonist | effect on a battery of 50 other receptors, transporters and ion channels [3]: no significant effect

CN[C@H]1CC[C@@H](c2ccc(Cl)c(Cl)c2)c2ccccc21 [sertraline]
mania on traditional antidepressants [1]: experienced mania

O=C1CN=C(c2ccccc2Cl)c2cc([N+](=O)[O-])ccc2N1 [clonazepam]
effect on the anxiolytic and antidepressant effects of Salvia divinorum alone ([1]; clonazepam oral and/or sublingual, about 1.5 mg b.i.d., along with cannabis and/or intranasal ketamine and inhaled Salvia divinorum): appeared to potentiate | effect on anxiety, tremor or other side effects of Salvia divinorum administration ([1]; clonazepam oral and/or sublingual, along with cannabis and/or intranasal ketamine and inhaled Salvia divinorum): helped to further alleviate any anxiety, tremor or any other side effect

CNC1(c2ccccc2Cl)CCCCC1=O (centres unmarked) [ketamine]
effect on the anxiolytic and antidepressant effects of Salvia divinorum alone ([1]; co-administered with inhaled Salvia divinorum, cannabis by combustion and inhalation and/or ketamine hydrochloride about 30 to about 75 mg intranasal): appeared to potentiate
